From patent US9168248B2, “Spiro compounds useful as inhibitors of stearoyl-coenzyme A delta-9 desaturase” (Merck Canada Inc., priority 2009, dated 2015) come the findings set out here.

The assay addresses human SCD1 (Homo sapiens (Human), UniProt O00767). Put plainly: SCD enzyme activity assay (conversion of radiolabeled stearoyl-CoA to oleoyl-CoA), human SCD1. The settings on record: human SCD1 from baculovirus/Sf9 expression system, reconstituted with cytochrome B5 and cytochrome B5 reductase; read-out: IC50 hSCD-1. In kind it is biochemical. The method, then:
I. SCD Enzyme Activity Assay:
The potency of compounds of formula I against the stearoyl-CoA desaturase was determined by measuring the conversion of radiolabeled stearoyl-CoA to oleoyl-CoA using rat liver microsome or human SCD1 following previously published procedures with some modifications (Joshi, et al., J. Lipid Res., 18: 32-36 (1977); Talamo, et al., Anal. Biochem, 29: 300-304 (1969)). Liver microsome was prepared from male Wistar or Sprague Dawley rats on a high carbohydrate diet for 3 days (LabDiet #5803, Purina). The livers were homogenized (1:10 w/v) in a buffer containing 250 mM sucrose, 1 mM EDTA, 5 mM DTT and 50 mM Tris-HCl (pH 7.5). After a 100,000×g centrifugation for 60 min, the liver microsome pellet was suspended in a buffer containing 100 mM sodium phosphate, 20% glycerol, 2 mM DTT, and stored at −78° C. Human SCD1 desaturase system was reconstituted using human SCD1 from a baculovirus/Sf9 expression system, cytochrome B5 and cytochrome B5 reductase. Typically, test compound in 2 μL DMSO was incubated for […] at room temperature with 180 μL of the SCD enzyme in a buffer containing 100 mM Tris-HCl (pH 7.5), ATP (5 mM), Coenzyme-A (0.1 mM), Triton X-100 (0.5 mM) and NADH (2 mM). The reaction was initiated by the addition of 20 μL of [^3H]-stearoyl-CoA (final concentration=2 μM, radioactivity concentration=1 μCi/mL). After 10 mM, the reaction mixture (80 μL) was mixed with a calcium chloride/charcoal aqueous suspension (100 μL charcoal (10% w/v) plus 25 μL CaCl2 (2N). After centrifugation to precipitate the radioactive fatty acid species, tritiated water released from 9,10-[^3H]-stearoyl-CoA by the SCD enzyme was quantified on a scintillation counter.

Sequence of human SCD1 (O00767 whole entry): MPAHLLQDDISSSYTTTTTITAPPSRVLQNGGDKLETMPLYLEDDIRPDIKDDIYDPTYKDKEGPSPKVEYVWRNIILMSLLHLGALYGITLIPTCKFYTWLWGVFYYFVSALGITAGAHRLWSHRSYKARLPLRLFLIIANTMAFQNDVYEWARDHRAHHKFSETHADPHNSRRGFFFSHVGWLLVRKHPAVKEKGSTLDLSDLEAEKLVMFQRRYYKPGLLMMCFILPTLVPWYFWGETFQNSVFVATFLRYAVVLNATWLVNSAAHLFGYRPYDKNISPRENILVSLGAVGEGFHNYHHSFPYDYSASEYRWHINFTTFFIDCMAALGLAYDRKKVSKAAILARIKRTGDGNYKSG

As to `Cc1cccc2c1CCC1(CCN(c3ncc(-c4nnn(CC(=O)O)n4)s3)CC1)O2` [Example 42, {5-[2-(5-Methyl-3,4-dihydro-1′H-spiro[chromene-2,4′-piperidin]-1′-yl)-1,3-thiazol-5-yl]-2H-tetrazol-2-yl}acetic acid], the IC50 (commonly the concentration that gives 50% inhibition) was 1 nM.

With `O=C(O)Cn1nnc(-c2nnc(N3CCC4(CCc5c(O)cccc5O4)CC3)s2)n1` [Example 12, {5-[5-(5-Hydroxy-3,4-dihydro-1′H-spiro[chromene-2,4′-piperidin]-1′-yl)-1,3,4-thiadiazol-2-yl]-2H-tetrazol-2-yl}acetic acid], the IC50 stood at 366 nM.

With `O=C(O)Cn1nnc(-c2cnc(N3CCC4(CC3)COc3ccccc34)s2)n1` [Example 6, {5-[2-(1′H-Spiro[1-benzofuran-3,4′-piperidin]-1′-yl)-1,3-thiazol-5-yl]-2H-tetrazol-2-yl}acetic acid], the half-inhibitory concentration (IC50) amounted to 65 nM.

With `COc1cccc2c1CCC1(CCN(c3nnc(-c4nnn(CC(=O)O)n4)s3)CC1)O2` [Example 11, {5-[5-(5-Methoxy-3,4-dihydro-1′H-spiro[chromene-2,4′-piperidin]-1′-yl)-1,3,4-thiadiazol-2-yl]-2H-tetrazol-2-yl}acetic acid], the IC50 amounted to 13 nM.

As to `O=C(O)Cn1nnc(-c2cc(N3CCC4(CCc5c(OC(F)(F)F)cccc5O4)CC3)no2)n1` [Example 16, (5-{3-[5-(Trifluoromethoxy)-3,4-dihydro-1H-spiro[chromene-2,4′-piperidin]-1′-yl]isoxazol-5-yl}-2H-tetrazol-2-yl)acetic acid], the IC50 came to 1 nM.

As to `O=C(O)Cn1nnc(-c2cnc(N3CCC4(CC3)CC(=O)c3ccccc3O4)s2)n1` [Example 4, {5-[2-(4-Oxo-3,4-dihydro-1′H-spiro[chromene-2,4′-piperidin]-1′-yl)-1,3-thiazol-5-yl]-2H-tetrazol-2-yl}acetic acid], the IC50 was 41 nM.

Regarding `O=C(O)Cn1nnc(-c2cnc(N3CCC4(CC3)NC(=O)c3ccccc3O4)s2)n1` [Example 9, {5-[2-(4-Oxo-3,4-dihydro-1′H-spiro[1,3-benzoxazine-2,4′-piperidin]-1′-yl)-1,3-thiazol-5-yl]-2H-tetrazol-2-yl}acetic acid], the IC50 came out at 181 nM.

Turning to `O=C(O)Cn1nnc(-c2cnc(N3CCC4(CCc5c(Cl)cccc5O4)CC3)s2)n1` [Example 3, {5-[2-(5-Chloro-3,4-dihydro-1′H-spiro[chromene-2,4′-piperidin]-1′-yl)-1,3-thiazol-5-yl]-2H-tetrazol-2-yl}acetic acid], the IC50 was determined as 13 nM.

With `O=C(O)Cn1nnc(-c2cc(N3CCC4(CCc5c(Br)cccc5O4)CC3)no2)n1` [Example 22, {5-[3-(5-Bromo-3,4-dihydro-1′H-spiro[chromene-2,4′-piperidin]-1′-yl)isoxazol-5-yl]-2H-tetrazol-2-yl}acetic acid], the IC50 was determined as 1 nM.

For `O=C(O)Cn1nnc(-c2cnc(N3CCC4(C=Cc5ccccc54)CC3)s2)n1` [Example 7, {5-[2-(1′H-Spiro[indene-1,4′-piperidin]-1′-yl)-1,3-thiazol-5-yl]-2H-tetrazol-2-yl}acetic acid], the IC50 stood at 244 nM.

As to `O=C(O)Cn1nnc(-c2nnc(N3CCC4(CCc5c(cccc5C(F)(F)F)O4)CC3)s2)n1` [Example 75, (5-{5-[5-(Trifluoromethyl)-3,4-dihydro-1′H-spiro[chromene-2,4′-piperidin]-1′-yl]-1,3,4-thiadiazol-2-yl}-2H-tetrazol-2-yl)acetic acid], the IC50 stood at 1 nM.

Regarding `O=C(O)Cn1nnc(-c2nnc(N3CCC4(CCc5c(Cl)cccc5O4)CC3)s2)n1` [Example 1, {5-[5-(5-Chloro-3,4-dihydro-1′H-spiro[chromene-2,4′-piperidin]-1′-yl)-1,3,4-thiadiazol-2-yl]-2H-tetrazol-2-yl}acetic acid], the IC50 is 12 nM.

`O=C(O)Cn1nnc(-c2cnc(N3CCC4(CC3)Cc3cccc(Cl)c3C(=O)O4)s2)n1` [Example 46, {5-[2-(8-Chloro-1-oxo-1,4-dihydro-1′H-spiro[isochromene-3,4′-piperidin]-1′-yl)-1,3-thiazol-5-yl]-2H-tetrazol-2-yl}acetic acid]: the IC50 was 21 nM.

On to “{4-[5-(5-Chloro-3,4-dihydro-1′H-spiro[chromene-2,4′-piperidin]-1′-yl)-1,3,4-thiadiazol-2-yl]-1H-1,2,3-triazol-1-yl}acetic acid [Example 72]”, for which the IC50 was found to be 3 nM.

For `O=C(O)Cn1nnc(-c2cnc(N3CCC4(CCc5c(cccc5C(F)(F)F)O4)CC3)s2)n1` [Example 76, (5-{2-[5-(Trifluoromethyl)-3,4-dihydro-1′H-spiro[chromene-2,4′-piperidin]-1′-yl]-1,3-thiazol-5-yl}-2H-tetrazol-2-yl)acetic acid], the half-inhibitory concentration (IC50) was 1 nM.

With `O=C(O)Cn1nnc(-c2cnc(N3CCC4(CCc5c(Br)cccc5O4)CC3)s2)n1` [Example 28, {5-[2-(5-Bromo-3,4-dihydro-1′H-spiro[chromene-2,4′-piperidin]-1′-yl)-1,3-thiazol-5-yl]-2H-tetrazol-2-yl}acetic acid], the IC50 came to 1 nM.

`O=C(O)Cn1nnc(-c2cnc(N3CCC4(CCc5c(OC(F)(F)F)cccc5O4)CC3)s2)n1` [Example 18, (5-{2-[5-(Trifluoromethoxy)-3,4-dihydro-1′H-spiro[chromene-2,4′-piperidin]-1′-yl]-1,3-thiazol-5-yl}-2H-tetrazol-2-yl)acetic acid]: the IC50 came to 1 nM.

For the molecule `O=C(O)Cn1nnc(-c2cnc(N3CCC4(CC3)NC(=O)c3c(Cl)cccc3O4)s2)n1` [Example 54], the IC50 was 62 nM.

Regarding `O=C(O)Cn1nnc(-c2nnc(N3CCC4(CC3)CC(=O)c3ccccc3O4)s2)n1` [Example 8, {5-[5-(4-Oxo-3,4-dihydro-1′H-spiro[chromene-2,4′-piperidin]-1′-yl)-1,3,4-thiadiazol-2-yl]-2H-tetrazol-2-yl}acetic acid], the IC50 turned out to be 708 nM.

On to `O=C(O)Cn1nnc(-c2nnc(N3CCC4(CCc5c(OC(F)(F)F)cccc5O4)CC3)s2)n1` [Example 17, (5-{5-[5-(Trifluoromethoxy)-3,4-dihydro-1′H-spiro[chromene-2,4′-piperidin]-1′-yl]-1,3,4-thiadiazol-2-yl}-2H-tetrazol-2-yl)acetic acid], for which the IC50 is 1 nM.

For `O=C(O)Cn1nnc(-c2cnc(N3CCC4(CCc5ccccc54)CC3)s2)n1` [Example 5, {5-[2-(2,3-Dihydro-1′H-spiro[indene-1,4′-piperidin]-1′-yl)-1,3-thiazol-5-yl]-2H-tetrazol-2-yl}acetic acid], the IC50 came out at 49 nM.

On to `O=C(O)Cn1ccn(-c2cnc(N3CCC4(CCc5c(Cl)cccc5O4)CC3)s2)c1=O` [Example 68, {3-[2-(5-Chloro-3,4-dihydro-1′H-spiro[chromene-2,4′-piperidin]-1′-yl)-1,3-thiazol-5-yl]-2-oxo-2,3-dihydro-1H-imidazol-1-yl}acetic acid], for which the IC50 was 3 nM.

With `O=C(O)Cn1nnc(-c2nnc(N3CCC4(CC3)Cc3ccccc3C(=O)O4)s2)n1` [Example 10, {5-[5-(1-Oxo-1,4-dihydro-1′H-spiro[isochromene-3,4′-piperidin]-1′-yl)-1,3,4-thiadiazol-2-yl]-2H-tetrazol-2-yl}acetic acid], the IC50 was found to be 338 nM.

As for `O=C(O)Cn1nnc(-c2cc(N3CCC4(CCc5c(Cl)cccc5O4)CC3)no2)n1` [Example 2, {5-[3-(5-Chloro-3,4-dihydro-1′H-spiro[chromene-2,4′-piperidin]-1′-yl)isoxazol-5-yl]-2H-tetrazol-2-yl}acetic acid], the IC50 was 11 nM.
